Tested on: subjects with moderate-to-severe plaque psoriasis
Test: PASI response, Example 1 16-week dose-ranging study
Type: in vivo, human
Settings: for PASI 100% Improvement, subjects / PASI ≥75% Improvement, subjects / PASI ≥90% Improvement, subjects: Combined doses
Description: The Psoriasis Area and Severity Index (PASI) is a system used for assessing and grading the severity of psoriatic lesions and their response to therapy. In the PASI system, the body is divided into four regions: the head, trunk, upper extremities, and lower extremities. Each of these areas is assessed and scored separately for erythema, induration, and scaling, which are each rated on a scale of 0 to 4 and extent of involvement on a scale of 0 to 6. The PASI produces a numeric score (a “PASI score”) that can range from 0 to 72. A higher score indicates more severe disease.
This was a randomized, double-blind, placebo-controlled, dose-ranging, parallel group, multicenter, interventional study in subjects with moderate-to-severe plaque psoriasis. A target of 240 subjects were enrolled in this study with 40 subjects planned per intervention group.
Clinician-reported outcomes including Psoriasis Area and Severity Index (PASI), Body Surface Area (BSA), Investigator's Global Assessment (IGA), Nail Psoriasis Area and Severity Index (NAPSI), Fingernail Physician's Global Assessment (f-PGA), Static Physician's Global Assessment of Genitalia (s-PGA-G), Physician's Global Assessment of Hands and/or Feet (hf-PGA), and Scalp Specific Investigator Global Assessment (ss-IGA) were obtained at Week 0, 8, and 16. PASI and IGA were also obtained at Weeks 1, 2, 4, and 12, and at Week 20, four weeks after the administration of the tablets has stopped.
The primary efficacy endpoint was the proportion of participants achieving a PASI 75 response at Week 16, defined as at least a 75% reduction from baseline in PASI total score.
For the primary analysis, composite strategy (non-responder imputation) was applied to address intercurrent event #1 (Discontinuation of study intervention due to lack of efficacy or due to an AE of worsening of psoriasis) and #2 (initiation of a protocol-prohibited medication or therapy that could improve psoriasis); and treatment policy strategy (observed data) was applied to intercurrent event #3 (Discontinuation of study intervention due to other reasons). Participants with missing data after application of ICEs are also considered as non-responders.
In addition to the response analysis, pairwise comparisons of each treatment group versus the placebo group were performed for the primary endpoint of PASI 75 at Week 16. Pairwise comparisons were not adjusted for multiplicity. The Cochran-Mantel-Haenszel chi-square statistic stratified by baseline weight category (≤90 kg, >90 kg) at a 2-sided significance level of 0.05 was used (Table 2).

[1] = Week 16, trough plasma conc Q2 to <Q3
[2] = Week 16, trough plasma conc ≥Q3
[3] = Week 16, 25 mg BID, intermediate plasma concentration quartile <Q1, N=1
[4] = Week 16, 25 mg BID, intermediate plasma concentration quartile Q1 to <Q2, N=1
[5] = Week 16, 25 mg BID, intermediate plasma concentration quartile Q2 to <Q3, N=1
[6] = Week 16, 25 mg BID, intermediate plasma concentration quartile ≥Q3, N=1
[7] = Week 16, 25 mg QD, intermediate plasma concentration quartile Q1 to <Q2, N=1
[8] = Week 16, 25 mg QD, intermediate plasma concentration quartile Q2 to <Q3, N=1
[9] = Week 16, 25 mg QD, intermediate plasma concentration quartile ≥Q3, N=1
[10] = Week 16, 50 mg QD, intermediate plasma concentration quartile <Q1, N=1
[11] = Week 16, 50 mg QD, intermediate plasma concentration quartile Q1 to <Q2, N=1
[12] = Week 16, 50 mg QD, intermediate plasma concentration quartile Q2 to <Q3, N=1
[13] = Week 16, 50 mg QD, intermediate plasma concentration quartile ≥Q3, N=2
[14] = Week 16, 100 mg BID, intermediate plasma concentration quartile <Q1, N=1
[15] = Week 16, 100 mg BID, intermediate plasma concentration quartile Q1 to <Q2, N=1
[16] = Week 16, 100 mg BID, intermediate plasma concentration quartile Q2 to <Q3, N=1
[17] = Week 16, 100 mg BID, intermediate plasma concentration quartile ≥Q3, N=2
[18] = Week 16, 100 mg QD, intermediate plasma concentration quartile <Q1, N=1
[19] = Week 16, 100 mg QD, intermediate plasma concentration quartile Q1 to <Q2, N=1
[20] = Week 16, 100 mg QD, intermediate plasma concentration quartile Q2 to <Q3, N=1
[21] = Week 16, 100 mg QD, intermediate plasma concentration quartile ≥Q3, N=1
[22] = Week 16, Combined regimens, intermediate plasma concentration quartile <Q1, N=5
[23] = Week 16, Combined regimens, intermediate plasma concentration quartile Q1 to <Q2, N=5
[24] = Week 16, Combined regimens, intermediate plasma concentration quartile Q2 to <Q3, N=5
[25] = Week 16, Combined regimens, intermediate plasma concentration quartile ≥Q3, N=6

CC(=O)NCCCC[C@@H]1NC(=O)[C@H](Cc2c[nH]c3c(C)cccc23)NC(=O)[C@H]([C@@H](C)O)NC(=O)[C@H](CC(N)=O)NC(=O)[C@@H](NC(C)=O)C(C)(C)SSC(C)(C)[C@@H](C(=O)N[C@@H](Cc2ccc(OCCN)cc2)C(=O)N[C@@H](Cc2ccc3ccccc3c2)C(=O)NC2(C(=O)N[C@@H](CCC(=O)O)C(=O)N[C@@H](CC(N)=O)C(=O)N[C@@H](Cc3cccnc3)C(=O)N(C)CC(N)=O)CCOCC2)NC1=O [IL-23 receptor antagonist peptide, Ac-[Pen]*-N-T-[W(7-Me)]-[Lys(Ac)]-[Pen]*-Phe[4-(2-aminoethoxy)]-[2-Nal]-[THP]-E-N-[3-Pal]-Sarc-NH2 (*[Pen]-[Pen]* formdisulfidebond)]
PASI 100% Improvement, subjects [1]: 4 (15.4%) | PASI ≥75% Improvement, subjects [1]: 14 (53.8%) | PASI ≥90% Improvement, subjects [1]: 11 (42.3%) | PASI 100% Improvement, subjects [2]: 9 (33.3%) | PASI ≥75% Improvement, subjects [2]: 22 (81.5%) | PASI ≥90% Improvement, subjects [2]: 15 (55.6%) | PASI 100% Improvement, subjects n (%) [3]: 0 | PASI ≥75% Improvement, subjects n (%) [3]: 0 | PASI ≥90% Improvement, subjects n (%) [3]: 0 | PASI 100% Improvement, subjects n (%) [4]: 0 | PASI ≥75% Improvement, subjects n (%) [4]: 1 (100.0%) | PASI ≥90% Improvement, subjects n (%) [4]: 0 | PASI 100% Improvement, subjects n (%) [5]: 0 | PASI ≥75% Improvement, subjects n (%) [5]: 0 | PASI ≥90% Improvement, subjects n (%) [5]: 0 | PASI 100% Improvement, subjects n (%) [6]: 0 | PASI ≥75% Improvement, subjects n (%) [6]: 1 (100.0%) | PASI ≥90% Improvement, subjects n (%) [6]: 1 (100.0%) | PASI 100% Improvement, subjects n (%) [7]: 0 | PASI ≥75% Improvement, subjects n (%) [7]: 0 | PASI ≥90% Improvement, subjects n (%) [7]: 0 | PASI 100% Improvement, subjects n (%) [8]: 1 (100.0%) | PASI ≥75% Improvement, subjects n (%) [8]: 1 (100.0%) | PASI ≥90% Improvement, subjects n (%) [8]: 1 (100.0%) | PASI 100% Improvement, subjects n (%) [9]: 0 | PASI ≥75% Improvement, subjects n (%) [9]: 0 | PASI ≥90% Improvement, subjects n (%) [9]: 0 | PASI 100% Improvement, subjects n (%) [10]: 0 | PASI ≥75% Improvement, subjects n (%) [10]: 1 (100.0%) | PASI ≥90% Improvement, subjects n (%) [10]: 0 | PASI 100% Improvement, subjects n (%) [11]: 1 (100.0%) | PASI ≥75% Improvement, subjects n (%) [11]: 1 (100.0%) | PASI ≥90% Improvement, subjects n (%) [11]: 1 (100.0%) | PASI 100% Improvement, subjects n (%) [12]: 1 (100.0%) | PASI ≥75% Improvement, subjects n (%) [12]: 1 (100.0%) | PASI ≥90% Improvement, subjects n (%) [12]: 1 (100.0%) | PASI 100% Improvement, subjects n (%) [13]: 0 | PASI ≥75% Improvement, subjects n (%) [13]: 1 (50.0%) | PASI ≥90% Improvement, subjects n (%) [13]: 1 (50.0%) | PASI 100% Improvement, subjects n (%) [14]: 1 (100.0%) | PASI ≥75% Improvement, subjects n (%) [14]: 1 (100.0%) | PASI ≥90% Improvement, subjects n (%) [14]: 1 (100.0%) | PASI 100% Improvement, subjects n (%) [15]: 1 (100.0%) | PASI ≥75% Improvement, subjects n (%) [15]: 1 (100.0%) | PASI ≥90% Improvement, subjects n (%) [15]: 1 (100.0%) | PASI 100% Improvement, subjects n (%) [16]: 0 | PASI ≥75% Improvement, subjects n (%) [16]: 1 (100.0%) | PASI ≥90% Improvement, subjects n (%) [16]: 0 | PASI 100% Improvement, subjects n (%) [17]: 2 (100.0%) | PASI ≥75% Improvement, subjects n (%) [17]: 2 (100.0%) | PASI ≥90% Improvement, subjects n (%) [17]: 2 (100.0%) | PASI 100% Improvement, subjects n (%) [18]: 1 (100.0%) | PASI ≥75% Improvement, subjects n (%) [18]: 1 (100.0%) | PASI ≥90% Improvement, subjects n (%) [18]: 1 (100.0%) | PASI 100% Improvement, subjects n (%) [19]: 1 (100.0%) | PASI ≥75% Improvement, subjects n (%) [19]: 1 (100.0%) | PASI ≥90% Improvement, subjects n (%) [19]: 1 (100.0%) | PASI 100% Improvement, subjects n (%) [20]: 0 | PASI ≥75% Improvement, subjects n (%) [20]: 1 (100.0%) | PASI ≥90% Improvement, subjects n (%) [20]: 0 | PASI 100% Improvement, subjects n (%) [21]: 0 | PASI ≥75% Improvement, subjects n (%) [21]: 1 (100.0%) | PASI ≥90% Improvement, subjects n (%) [21]: 0) | PASI 100% Improvement, subjects n (%) [22]: 3 (60.0%) | PASI ≥75% Improvement, subjects n (%) [22]: 4 (80.0%) | PASI ≥90% Improvement, subjects n (%) [22]: 3 (60.0%) | PASI 100% Improvement, subjects n (%) [23]: 2 (40.0%) | PASI ≥75% Improvement, subjects n (%) [23]: 3 (60.0%) | PASI ≥90% Improvement, subjects n (%) [23]: 2 (40.0%) | PASI 100% Improvement, subjects n (%) [24]: 1 (20.0%) | PASI ≥75% Improvement, subjects n (%) [24]: 3 (60.0%) | PASI ≥90% Improvement, subjects n (%) [24]: 1 (20.0%) | PASI 100% Improvement, subjects n (%) [25]: 3 (50.0%) | PASI ≥75% Improvement, subjects n (%) [25]: 6 (100.0%) | PASI ≥90% Improvement, subjects n (%) [25]: 5 (83.3%) | Improvement (reduction) in PASI total score from baseline (each dose group vs placebo, Week 16): significantly greater improvement
